Pest or weed control data for 33 molecules are collected here from US20150344466A1 (SUMITOMO CHEMICAL COMPANY, LIMITED, priority 2013, published 2015).

One experiment deals with Blattella germanica. Nature of the experiment: Knockdown spray test on Blattella germanica, 0.1% w/v oil formulation (Test Example 2). Type of experiment: in vivo. The settings on record: topical, 0.25 h, active ingredient 0.1% w/v, 1.5 ml sprayed, within 15 minutes, read-out: knockdown rate of the test insects within 15 minutes. As to the method:
Ten Blattella germanica (5 males and 5 females) were released in a test container (8.75 cm in diameter, 7.5 cm in height, and the bottom made of 16 mesh metallic wire) with the inner wall on which butter was applied, and the container was placed on the bottom of a test chamber (bottom: 46 cm×46 cm, height: 70 cm). From a height of 60 cm above the upper surface of the container, 1.5 ml of the test drug solution was sprayed using a spray gun (a spraying pressure of 0.42 kg/cm^2). Thirty seconds after spraying, the container was taken out from the test chamber, and after 2 minutes, 5 minutes and 15 minutes, the number of knocked-down insects was counted to obtain a knockdown rate. The knockdown rate was calculated by the following equation.
(§1) Knockdown Rate (%)=(Number of Knocked-down Insects/Number of Tested Insects)×100

In the next experiment the test system is Culex pipiens pallens. Put plainly: Knockdown spray test on adult Culex pipiens pallens (Test Example 4). To be noted: topical, 0.25 h, active ingredient 0.1% w/v, 0.5 ml sprayed, within 15 minutes, read-out: knockdown rate of the test insects within 15 minutes. Type of experiment: in vivo. The protocol:
Ten adult Culex pipiens pallens were released in a polyethylene cup (bottom diameter: 10.6 cm), and the cup was covered with a 16-mesh nylon gauze. The polyethylene cup was placed on the bottom of a test chamber (bottom: 46 cm×46 cm, height: 70 cm). From a height of 30 cm above the upper surface of the polyethylene cup, 0.5 ml of the test drug solution was sprayed using a spray gun (a spraying pressure of 0.4 kg/cm^2). Immediately after spraying, the cup was taken out from the test chamber, and after 2 minutes, 5 minutes and 15 minutes, the number of knocked-down insects was counted to obtain a knockdown rate. The knockdown rate was calculated by the following equation.
as §1

`O=C(NCC1CCOC1)c1cc(COCc2cccc(F)c2)on1` (stereo not drawn) [(74)]: the pest or weed control at 0.1 % strength with Blattella germanica and with Culex pipiens pallens was at least 80% each time.

`O=C(NCC1CCOCC1)c1cc(COCc2cccc(F)c2)on1` [(75), N-(tetrahydropyran-4-ylmethyl)-5-(3-fluorobenzyloxymethyl)isoxazole-3-carboxamide]: the pest or weed control at 0.1 % strength in the experiment with Blattella germanica and in the experiment on Culex pipiens pallens was at least 80% in each case.

With `O=C(NCC1CCOC1)c1cc(COCc2cccc(SC(F)(F)F)c2)on1` (stereo not drawn) [(80), N-(tetrahydrofuran-3-ylmethyl)-5-(3-trifluoromethylthiobenzyloxymethyl)isoxazole-3-carboxamide], the pest or weed control at 0.1 % strength in the experiment with Blattella germanica and in the experiment with Culex pipiens pallens was at least 80% in each case.

Regarding `COc1cccc(COCc2cc(C(=O)NCC3CCOCC3)no2)c1` [(85), N-(tetrahydropyran-4-ylmethyl)-5-(3-methoxybenzyloxymethyl) isoxazole-3-carboxamide], the pest or weed control at 0.1 % strength with Blattella germanica and in the experiment on Culex pipiens pallens was at least 80% each time.

Consider `CSc1cccc(COCc2cc(C(=O)NCC3CCOC3)no2)c1` (stereo not drawn) [(88), N-(tetrahydrofuran-3-ylmethyl)-5-(3-methylthiobenzyloxymethyl)isoxazole-3-carboxamide], for which the pest or weed control at 0.1 % strength in the experiment with Blattella germanica and in the experiment on Culex pipiens pallens was at least 80% throughout.

Turning to `O=C(NCC1CCOC1)c1cc(COCc2ccc(F)cc2)on1` (stereo not drawn) [(89), N-(tetrahydrofuran-3-ylmethyl)-5-(4-fluorobenzyloxymethyl)isoxazole-3-carboxamide], the pest or weed control at 0.1 % strength in the experiment on Blattella germanica and with Culex pipiens pallens was at least 80% in each case.

In the case of `COc1ccc(COCc2cc(C(=O)NCC3CCOC3)no2)cc1` (stereo not drawn) [(99), N-(tetrahydrofuran-3-ylmethyl)-5-(4-methoxybenzyloxymethyl) isoxazole-3-carboxamide], the pest or weed control at 0.1 % strength in the experiment with Blattella germanica and in the experiment with Culex pipiens pallens was at least 80% in each case.

`O=C(NCC1CCOC1)c1cc(COCc2ccc(Cl)s2)on1` (stereo not drawn) [(109), N-(tetrahydrofuran-3-ylmethyl)-5-(2-chlorothiophen-5-ylmethoxymethyl)isoxazole-3-carboxamide]: the pest or weed control at 0.1 % strength in the experiment with Blattella germanica and in the experiment on Culex pipiens pallens was at least 80% each time.

For `O=C(NCC1CCOCC1)c1cc(COCc2ccc(Cl)s2)on1` [(110), N-(tetrahydropyran-4-ylmethyl)-5-(2-chlorothiophen-5-ylmethoxymethyl)isoxazole-3-carboxamide], the pest or weed control at 0.1 % strength with Blattella germanica and in the experiment on Culex pipiens pallens was at least 80% each time.

In the case of `O=C(NCC1CCOC1)c1cc(COCc2cc3ccccc3o2)on1` (stereo not drawn) [(111)], the pest or weed control at 0.1 % strength in the experiment with Blattella germanica and with Culex pipiens pallens was at least 80% throughout.

Consider `O=C(NCC1CCOC1)c1cc(COCc2ccc(-c3ccccc3)o2)on1` (stereo not drawn) [(124), N-(tetrahydrofuran-3-ylmethyl)-5-(5-phenylfurfuryloxymethyl)isoxazole-3-carboxamide], for which the pest or weed control at 0.1 % strength in the experiment with Blattella germanica and with Culex pipiens pallens was at least 80% throughout.

Consider `O=C(NCC1CCOC1)c1cc(COCCCc2ccccc2)on1` (stereo not drawn) [(133), N-(tetrahydrofuran-3-ylmethyl)-5-(3-phenylpropoxymethyl)isoxazole-3-carboxamide], for which the pest or weed control at 0.1 % strength with Blattella germanica and in the experiment on Culex pipiens pallens was at least 80% in each case.

Consider `O=C(NCC1CCOCC1)c1cc(COCCCc2ccccc2)on1` [(134), N-(tetrahydropyran-4-ylmethyl)-5-(3-phenylpropoxymethyl)isoxazole-3-carboxamide], for which the pest or weed control at 0.1 % strength in the experiment on Blattella germanica and in the experiment on Culex pipiens pallens was at least 80% each time.

With `O=Cc1c(C(=O)NCC2CCOC2)noc1COCc1ccccc1` (stereo not drawn) [(165), N-(tetrahydrofuran-3-ylmethyl)-(5-benzyloxymethyl-4-formyl) isoxazole-3-carboxamide], in the experiment with Blattella germanica, the pest or weed control at 0.1 % strength was at least 80%.

Consider `CC(F)c1c(C(=O)NCC2CCOC2)noc1COCc1ccccc1` (stereo not drawn) [(172), N-(tetrahydrofuran-3-ylmethyl)-[5-benzyloxymethyl-4-(1-fluoroethyl)]isoxazole-3-carboxamide], for which the pest or weed control at 0.1 % strength in the experiment with Blattella germanica and in the experiment on Culex pipiens pallens was at least 80% in each case.

As to `O=C(NCC1CCOC1)c1noc(COCc2ccccc2)c1CO` (stereo not drawn) [(174), N-(tetrahydrofuran-3-ylmethyl)-(5-benzyloxymethyl-4-hydroxymethyl)isoxazole-3-carboxamide], the pest or weed control at 0.1 % strength in the experiment with Blattella germanica and in the experiment on Culex pipiens pallens was at least 80% each time.

Turning to `CC(O)c1c(C(=O)NCC2CCOC2)noc1COCc1ccccc1` (stereo not drawn) [(175), N-(tetrahydrofuran-3-ylmethyl)-[5-benzyloxymethyl-4-(1-hydroxyethyl)]isoxazole-3-carboxamide], the pest or weed control at 0.1 % strength with Blattella germanica and in the experiment with Culex pipiens pallens was at least 80% in each case.

Regarding `O=C(NCC1CCOCC1)c1cc(COc2ccccc2Cl)on1` [(177), N-(tetrahydropyran-4-ylmethyl)-5-(2-chlorophenoxymethyl)isoxazole-3-carboxamide], the pest or weed control at 0.1 % strength in the experiment on Blattella germanica and with Culex pipiens pallens was at least 80% each time.

As for `O=C(NCC1CCOC1)c1cc(COc2cccc(Cl)c2)on1` (stereo not drawn) [(178), N-(tetrahydrofuran-3-ylmethyl)-5-(3-chlorophenoxymethyl)isoxazole-3-carboxamide], the pest or weed control at 0.1 % strength in the experiment with Blattella germanica and in the experiment with Culex pipiens pallens was at least 80% in each case.

On to `O=C(NCC1CCOC1)c1cc(CCCc2cccc(F)c2)on1` (stereo not drawn) [(251), N-(tetrahydrofuran-3-ylmethyl)-5-[3-(3-fluorophenyl)propyl]isoxazole-3-carboxamide], for which, in the experiment on Culex pipiens pallens, the pest or weed control at 0.1 % strength is at least 80%.

`O=C(NCC1CCOC1)c1cc(CSCc2ccccc2)on1` (stereo not drawn) [(254), N-(tetrahydrofuran-3-ylmethyl)-5-benzylthiomethylisoxazole-3-carboxamide]: the pest or weed control at 0.1 % strength in the experiment on Culex pipiens pallens was at least 80%.

Consider `O=C(NCC1CCOC1)c1noc(COCc2ccc3ccccc3c2)c1Br` (stereo not drawn) [(256), N-(tetrahydrofuran-3-ylmethyl)-5-(2-naphthylmethoxymethyl)-4-bromoisoxazole-3-carboxamide], for which, in the experiment on Culex pipiens pallens, the pest or weed control at 0.1 % strength is at least 80%.

In the case of `O=C(NCC1CCOC1)c1cc(COCc2cc(F)ccc2F)on1` (stereo not drawn) [(259), N-(tetrahydrofuran-3-ylmethyl)-5-(2,5-difluorobenzyloxymethyl)isoxazole-3-carboxamide], in the experiment with Culex pipiens pallens, the pest or weed control at 0.1 % strength is at least 80%.

For `O=C(NCC1CCOC1)c1cc(COCc2cc(Br)cc(Br)c2)on1` (stereo not drawn) [(262), N-(tetrahydrofuran-3-ylmethyl)-5-(3,5-dibromobenzyloxymethyl)isoxazole-3-carboxamide], in the experiment on Culex pipiens pallens, the pest or weed control at 0.1 % strength is at least 80%.

With `O=C(NCC1CCOC1)c1cc(COCc2c(F)c(F)cc(F)c2F)on1` (stereo not drawn) [(269), N-(tetrahydrofuran-3-ylmethyl)-5-(2,3,5,6-tetrafluorobenzyloxymethyl)isoxazole-3-carboxamide], in the experiment with Culex pipiens pallens, the pest or weed control at 0.1 % strength was at least 80%.

As for `Cc1c(F)c(F)c(COCc2cc(C(=O)NCC3CCOC3)no2)c(F)c1F` (stereo not drawn) [(273), N-(tetrahydrofuran-3-ylmethyl)-5-(4-methyl-2,3,5,6-tetrafluorobenzyloxymethyl)isoxazole-3-carboxamide], in the experiment with Culex pipiens pallens, the pest or weed control at 0.1 % strength was at least 80%.

Take `O=C(NCC1CCOC1)c1noc(COCc2ccc3ccccc3c2)c1I` (stereo not drawn) [(295), N-(tetrahydrofuran-3-ylmethyl)-5-(2-naphthylmethoxymethyl)-4-iodoisoxazole-3-carboxamide]: in the experiment on Culex pipiens pallens, the pest or weed control at 0.1 % strength is at least 80%.

Regarding `O=C(NCC1CCOC1)c1noc(COCc2ccccc2F)c1Br` (stereo not drawn) [(296), N-(tetrahydrofuran-3-ylmethyl)-5-(2-fluorobenzyloxymethyl)-4-bromoisoxazole-3-carboxamide], in the experiment with Culex pipiens pallens, the pest or weed control at 0.1 % strength is at least 80%.

In the case of `O=C(NCC1CCOC1)c1noc(COCc2ccccc2F)c1I` (stereo not drawn) [(297), N-(tetrahydrofuran-3-ylmethyl)-5-(2-fluorobenzyloxymethyl)-4-iodoisoxazole-3-carboxamide], in the experiment with Culex pipiens pallens, the pest or weed control at 0.1 % strength is at least 80%.

Regarding `O=C(NCC1CCOC1)c1cc(Cc2cc(Cl)cc(Cl)c2)on1` (stereo not drawn) [(307), N-(tetrahydrofuran-3-ylmethyl)-5-(3,5-dichlorobenzyl)isoxazole-3-carboxamide], in the experiment on Culex pipiens pallens, the pest or weed control at 0.1 % strength is at least 80%.

`O=C(NCC1CCOC1)c1cc(Cc2ccc(C(F)(F)F)cc2)on1` (stereo not drawn) [(316), N-(tetrahydrofuran-3-ylmethyl)-5-(4-trifluoromethylbenzyl)isoxazole-3-carboxamide]: the pest or weed control at 0.1 % strength in the experiment with Culex pipiens pallens is at least 80%.

For the molecule `O=C(NCC1CCOC1)c1cc(Cc2ccccc2F)on1` (stereo not drawn) [(320), N-(tetrahydrofuran-3-ylmethyl)-5-(2-fluorobenzyl)isoxazole-3-carboxamide], in the experiment on Culex pipiens pallens, the pest or weed control at 0.1 % strength was at least 80%.

For the molecule `O=C(NCC1CCOC1)c1cc(Cc2ccccc2Cl)on1` (stereo not drawn) [(323), N-(tetrahydrofuran-3-ylmethyl)-5-(2-chlorobenzyl)isoxazole-3-carboxamide], the pest or weed control at 0.1 % strength in the experiment on Culex pipiens pallens is at least 80%.
